A word on the EC50: it is the concentration at which the effect is half-maximal.

We go through two compounds from patent US20100248390A1, “COMPOSITIONS AND METHODS FOR IDENTIFYING LIGANDS OF ODORANT RECEPTORS” (DUKE UNIVERSITY, priority 2009, published 2010).

In assay [1] the target is T1, mouse odorant receptors (ORs) (Mus musculus, UniProt Q9JHB2).
T1 construct: OR open reading frames were amplified from genomic DNA; expressed in transfected cells; host or cells: Hana3A cells, co-transfected with RTP1S, CRE-luciferase and pRL-SV40
T1 sequence (Q9JHB2 1-309): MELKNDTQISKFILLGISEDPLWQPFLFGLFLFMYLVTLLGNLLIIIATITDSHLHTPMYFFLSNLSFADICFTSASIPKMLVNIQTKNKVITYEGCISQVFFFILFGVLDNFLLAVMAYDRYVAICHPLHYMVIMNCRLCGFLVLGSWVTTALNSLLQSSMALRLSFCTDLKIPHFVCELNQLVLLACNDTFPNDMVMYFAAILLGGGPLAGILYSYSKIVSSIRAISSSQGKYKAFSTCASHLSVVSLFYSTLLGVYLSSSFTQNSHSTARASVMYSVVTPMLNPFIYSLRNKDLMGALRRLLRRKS
Kind of assay: CRE-luciferase assay of odorant receptor activation (Dual-Glo, Hana3A cells, RTP1S), dose-response EC50. The assay is classed as cell-based. Particulars: receptor MOR140-1.

In assay [2] the target is T2, mouse odorant receptors (ORs) (Mus musculus, UniProt Q8VGS3).
T2 construct: OR open reading frames were amplified from genomic DNA; expressed in transfected cells; host or cells: Hana3A cells, co-transfected with RTP1S, CRE-luciferase and pRL-SV40
T2 sequence (Q8VGS3 1-310): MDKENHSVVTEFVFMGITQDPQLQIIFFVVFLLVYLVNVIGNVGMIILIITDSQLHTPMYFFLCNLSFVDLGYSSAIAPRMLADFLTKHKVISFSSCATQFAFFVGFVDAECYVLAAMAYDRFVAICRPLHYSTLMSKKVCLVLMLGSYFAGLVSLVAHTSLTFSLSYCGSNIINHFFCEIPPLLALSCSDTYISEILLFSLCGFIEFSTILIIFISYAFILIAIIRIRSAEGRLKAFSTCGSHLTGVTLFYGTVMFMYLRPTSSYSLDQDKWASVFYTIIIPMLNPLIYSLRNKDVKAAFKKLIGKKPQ
The description is as above. The conditions noted are these: receptor MOR180-1; read-out: log EC50 of odorant at MOR180-1 (0 = no response) (converted). The assay is classed as cell-based.

SMILES strings stand for the structures.

With `CCCCCC1=C(C)CCC1=O` [Dihydroiasmone], the “log EC50 (Table 4 value), MOR140-1” value in assay [1] is given as −3.614.
`CC(=O)Oc1ccccc1` [Phenyl acetate]: the EC50 in assay [2] was 661 µM.
